Entries after “also recorded” stand apart in the source; their conditions may differ.
Assays:
[1] = test system: HepaRG cells; conditions: HepaRG cells in 3D GelMa culture, in the presence of U126 (16.4% in its absence); data not shown
[2] = test system: HuH-7 cells; test: Cleaved caspase 3 (apoptosis) in HuH-7 cells in 3D GelMa culture; assay type: cell-based, human; conditions: treatment at day 14, data not shown
Procedure: Cell laden 3D constructs were fixed in 4% formaldehyde, washed 3 times in PBS and stored at 4° C. until use or immediately suspended in a 0.12 M phosphate buffer containing 10% w/v saccharose and incubated overnight. They were embedded in a protective matrix composed of gelatin 7.5% w/v and 10% w/v saccharose, then frozen in isopentane and cryosectioned at a thickness of 7 μm. Slides were stained on the Discovery Automated IHC stainer using the discovery Rhodamin kit (Ventana Mediacl systems, Tucson, AZ, USA). The concentrations and references of the primary antibodies that were used can be found in Table 1 below. After rinsing, signal enhancement was performed using the Ventana Rhodamin kit and secondary antibody anti-rabbit HRP (760-4311, Roche) or secondary antibody anti-mouse HRP (760-4310, Roche) for 16 min of incubation. After removal from the instrument, slides were manually rinsed, stained when required with albumin antibody then a secondary antibody for albumin detection (Donkey anti goat 488), and mounted with Dapi Fluoromount-G.

[3] = test system: HepaRG cells in coculture with LX-2 cells and HUVECs (CoC); test: LDH release in coculture (CoC); assay type: cell-based; conditions: 5 ng/mL every 48 h for 7 days
Procedure: (§1) Cell viability was assessed by using the WST-1 (water soluble tetrazolium-1) proliferation assay on cell laden 3D constructs at different days or times of culture. Briefly, the cell laden 3D constructs were treated with 100 μL of WST-1 reagent and incubated 30 min at 37° C. Absorbance at 440 nm was read in a microplate reader (SpectrostarNano, BMG labtech, Champigny s/Marne, FR) and the values were converted into percentage of absorbance by comparison with controls assessed at day 0 or time 0. Measurement of lactate dehydrogenase (LDH) was performed on supernatants with the LDH-Glo™ Cytotoxicity Assay (Promega) by following manufacturer's instructions.

[4] = test system: LX-2 cells; test: mRNA expression (RT-qPCR) in LX-2 cells in 3D GelMa culture; assay type: cell-based, human; conditions: 5 ng/mL every 48 h from day 2
Procedure: After 1, 2 and 4 week(s) of culture, 3D constructs comprising 3D cell structures were harvested, washed twice in PBS and total ribonucleic acid (RNA) was extracted using TRIzol™ reagent. The concentration of total RNA was measured with a NanoDrop ND-1000 (NanoDrop Technologies). Complementary deoxyribonucleic acid (cDNA) was synthetized using the High Capacity cDNA reverse transcriptase kit (Applied Biosystems Foster City, CA, USA), and real-time polymerase chain reaction (PCR) was performed using the Power SYBR Green PCR master mix (Applied Biosystems Foster City, CA, USA). […] The expression levels of the target genes were normalized to those of GAPDH and determined by the ΔΔCt method. Final results were expressed as the n-fold difference in target gene expression in samples when compared with the mean expression values of the target gene for controls: either non-differentiated HepaRG (referred to as 2D) or HepaRG differentiated in standard 2D culture conditions (referred to as 2D DMSO). […]
First, the culture of LX-2 cells alone in 3D GelMa culture was assessed, with or without treatment with TGFβ-1, a classical pro-fibrotic cytokine (Czaja et al., J Cell Biol. 1989 June; 108(6):2477-82). […] Then, the mRNA expression of ACTA2, ADAMTS12, LPL, COL1A1, MMP2, TGFβ-1 and TIMP1 was assessed in LX-2 cells in 3D GelMa culture, stimulated or not by TGFβ-1 (FIGS. 14A-G, respectively). […]

[5] = test system: HepaRG or HepaRG+HUVECs; test: Pro-collagen 1a1 secretion (ELISA) in HepaRG or HepaRG+HUVECs; assay type: cell-based, human; conditions: day 21
Procedure: (§2) Medium samples were taken for the determination of albumin and urea content every 48 h. Secreted albumin and proCol1a1 (pro-collagen 1 alpha 1) were quantified using the human serum albumin Duoset Enzyme Linked Immunosorbent Assay (ELISA) kit (R&D systems, Minneapolis, MN, USA) and the human pro-Col1a1 Duoset Enzyme Linked Immunosorbent Assay kits (R&D systems, Minneapolis, MN, USA), according to manufacturer's instructions. Quantification was performed by measuring absorbance at 450 nm using a microplate reader (SpectrostarNano, BMG labtech, Champigny s/Marne, FR). Urea secretion in the medium was measured using a ChromaDazzle Urea Assay kit (AssayGenie, Dublin, IR) according to the manufacturer's protocol, using medium as standard and reading the absorbance at 420 nm (SpectrostarNano, BMG labtech, Champigny s/Marne, FR)

[6] = test system: LX-2 cells; test: SHG microscopy of fibrillar collagen, LX-2 cells alone in 3D GelMa; assay type: cell-based, human; conditions: LX-2 cells cultured alone in 3D GelMa, after induction
Procedure: (§3) TPEF/SHG microscopy imaging was performed on mRIC facility of Biosit, University of Rennes1 (France). The SHG imaging system is composed of a confocal TCS SP5 scanning head (Leica Microsystems, Mannheim, Germany) mounted on a DMIRE2 inverted microscope (Leica Microsystems) and equipped with a MAITAI femtosecond laser (Spectra Physics, Santa Clara, CA). 60× water immersion objective (Olympus LUMFL 60 W×1.1NA) was used for applying an 820 nm excitation to the sample. The SHG signal was collected in the forward direction using the condenser (S1, NA ¼ 0.9-1.4; Leica Microsystems), and the TPEF was epi-collected in the backward direction. IRSP 715 bandpass and 410 nm infrared (IR) filters (10 nm full width at half-maximum, FWHM) were placed before the photomultiplier tube. The image processing was performed with ImageJ software (National Institutes of Health).
(§4) SHG microscopy was used to visualize fibrillar collagen, mostly collagen-1 and -3. Briefly, SHG relies on the nonlinear optical interactions with […] fibrillar structures, such as collagen type I, allowing their detection and quantification in 3D tissues. […] For example, such culture is not suitable for the study of liver fibrosis.

[7] = test system: HepaRG cells in coculture with LX-2 cells and HUVECs (CoC); test: Albumin, urea and pro-collagen 1a1 secretion in coculture (CoC); assay type: cell-based, human
Procedure: as §2
(§5) For coculture constructs, the bioprinted 3D structure comprising HepaRG cells and LX-2 cells was cultured during a week, before being put in a low attachment plate containing 1×10^6 HUVECs per mL of medium.

[8] = test system: HepaRG cells in coculture with LX-2 cells and HUVECs (CoC); test: mRNA expression (RT-qPCR) in HepaRG + LX-2 + HUVECs coculture (CoC) in 3D GelMa; assay type: cell-based, human
Procedure: After 1, 2 and 4 week(s) of culture, 3D constructs comprising 3D cell structures were harvested, washed twice in PBS and total ribonucleic acid (RNA) was extracted using TRIzol™ reagent. The concentration of total RNA was measured with a NanoDrop ND-1000 (NanoDrop Technologies). Complementary deoxyribonucleic acid (cDNA) was synthetized using the High Capacity cDNA reverse transcriptase kit (Applied Biosystems Foster City, CA, USA), and real-time polymerase chain reaction (PCR) was performed using the Power SYBR Green PCR master mix (Applied Biosystems Foster City, CA, USA). Basic local alignment search tool (BLAST) was used to design primer sequences which were purchased from Eurogentec (Searing, BE). The expression levels of the target genes were normalized to those of GAPDH and determined by the ΔΔCt method. Final results were expressed as the n-fold difference in target gene expression in samples when compared with the mean expression values of the target gene for controls: either non-differentiated HepaRG (referred to as 2D) or HepaRG differentiated in standard 2D culture conditions (referred to as 2D DMSO). All results are presented as mean±SD of at least n=3 experiments.
as §5
The mRNA expression of hepatic genes (ALB, ALDOB, PPARA and SERPINA1) and of myofibroblastic transition genes and extracellular matrix remodeling genes (ACTA2, ADAMTS12, COL1A1, COL3A1, MMP2, MMP9 and TIMP1) was assessed at day 21 (i) in HepaRG alone in 3D GelMa culture, (ii) in HepaRG in 3D GelMa culture with LX-2 cells and HUVECs (CoC) and (iii) in HepaRG in 3D GelMa culture with LX-2 cells and HUVECs (CoC) activated with TGFβ-1 treatment for 7 days (FIGS. 16A-K). […] The albumin secretion of the HepaRG cells in coculture with the LX-2 cells and HUVECs (CoC) was also assessed and compared to that of HepaRG cells cultured alone (HepaRG) and bioprinted in GelMa matrix under the same conditions.

[9] = test system: HepaRG cells; test: SHG microscopy of fibrillar collagen, HepaRG cells alone in 3D GelMa; assay type: cell-based, human; conditions: HepaRG cells cultured alone in 3D GelMa, with or without treatment
Procedure: as §3, §4

[10] = test system: HuH-7 cells; assay type: cell-based, human
Procedure: as §1

[11] = assay type: physicochemical
Procedure: The physical properties of different methacrylated gelatin matrices (GelMa matrices) were analyzed by assessing the polymerization and bioprinting properties of the matrices as a function of the GelMa concentration, the photoinitiator LAP concentration and the illumination time at 405 nm (FIG. 1). As shown on FIG. 1A, at 20° C. a concentration of GelMa of 2.5% was not sufficient to ensure a proper polymerization of the matrix and subsequently, an optimal viscosity for the bioprinting process. As shown on FIG. 1B, a minimum concentration of LAP (i.e., 0.1% (w/v)) and an optimized illumination time (i.e., 60 seconds) were defined to reduce the phototoxicity and the production of excess free radicals while maintaining sufficient structural integrity of the printed GelMa for 28 days at 37° C. As shown on FIGS. 1C-D, weight loss of the matrices was assessed as a function of the photoinitiator LAP concentration (either 0.1% (w/v) on FIG. 1C or 0.3% (w/v) on FIG. 1D) and the illumination time at 405 nm. A rapid decrease of the matrix weight, of up to about 40%, was observed 5 hours after the polymerization process (FIG. 1C-D). Then, a constant weight for at least 28 days was observed, indicating a good stability of the matrix in the culture medium at 37° C. (FIGS. 1C-D). […]

[12] = CoC, day 21, 5 ng/mL every 48 h for 7 days

**Q.** With `N#CC(=C(/N)Sc1ccccc1N)/C(C#N)=C(/N)Sc1ccccc1N` [U126] as the compound, how does the EdU positive cells [1] read?
**A.** 0.9%

**Q.** Which “response of the cells to an apoptotic inducer (caspase 3)” value [2] does the source give for `N.N.[Cl][Pt][Cl]` [cisplatin] here?
**A.** responded well

**Q.** For “TGFβ-1: a classical pro-fibrotic cytokine”, which “release of LDH (a cell death marker) in the medium” value [3] is on record?
**A.** no specific release

**Q.** What about the “mRNA expression of ACTA2, COL1A1, MMP2 and TIMP1” value [4] of the same compound?
**A.** clearly increased in a time-dependent manner

**Q.** What about the “pro-collagen 1a1 secretion” value [5] of the same compound?
**A.** significatively induces its secretion

**Q.** What about the “collagen fibrils (SHG microscopy)” value [6] of the same compound?
**A.** Very few collagen fibrils or no collagen fibrils at all; also recorded: no collagen fibrils were ever observed

**Q.** And the albumin secretion ([7]; CoC, 5 ng/mL every 48 h for 7 days)?
**A.** decrease

**Q.** And the urea secretion ([7]; CoC, over the 21 days of culture, with or without treatment, data not shown)?
**A.** remained stable

**Q.** What about the “pro-collagen 1a1 secretion” value ([7]; HepaRG+LX-2+HUVECs (CoC), day 21) of the same compound?
**A.** no significant increase

**Q.** And the “expression of genes involved in ECM homeostasis (ACTA2, ADAMTS12, COL1A1, COL3A1, MMP2, MMP9 and TIMP1)” value [8, 12]?
**A.** increase

**Q.** What about the “hepatic gene mRNA expression (ALB, ALDOB, PPARA and SERPINA1)” value [8, 12] of the same compound?
**A.** decrease

**Q.** What about the COL1A1 expression ([8]; HepaRG alone, HepaRG+HUVECs and CoC (all three conditions)) of the same compound?
**A.** significant increase

**Q.** And the “collagen deposition (SHG microscopy)” value [9]?
**A.** No collagen deposition

**Q.** Which “HuH-7 cell viability (WST-1 proliferation assay)” value [10] does the source give for methacrylated gelatin [GelMa] here?
**A.** no decrease

**Q.** And the “constant weight (stability of the matrix in the culture medium)” value [11]?
**A.** at least 28 days
